The values below come from patent publication US7125568B2, “Lipophilic drug compositions” (priority 2001, dated 2006).

Data set [1] is described as follows: Solubility and heat stability of the bulk drug. The data set is classed as physicochemical. Here is the method:
In a typical example, an equimolar ratio (approximately 2.5 moles) of lauric acid is activated with dicyclohexyl-carbodiimide (DCC) in 500 mL of dimethylformamide. After 90 minutes, the insoluble dicyclohexylurea formed is removed by vacuum filtration. The activated lauric acid solution is then added in approximately 1:1 ratio of the nucleophile 2-amino-5 nitro-thiazole in 600 mL of methylene chloride, 60 ml of pyridine and made up to 3.5 liters with dimethylformamide. The reaction is allowed to proceed for 40–48 hours with shaking, stirring or heating at 50° C. The product formed is obtained and purified by precipitation and recrystallization in methanol and or acetone. This synthesis scheme is depicted as 2-lauramide-5-nitrothioazole and is a nice needle shaped microcrystal. […] To promote complete dissolution, the drug has to be lightly heated.

The test system of another data set is HSV. Nature of the data set: Plaque reduction assay, HSV in human embryonic fibroblast cells. The data set is classed as cell-based, Herpes simplex virus. On the procedure:
(§1) The drugs, NTZ and BA 3540, were made soluble at 10 mg/mL in dimethylsulfoxide and then diluted in media to 50 μg/mL, 5 μg/mL, 2.5 μg/mL, and 1.5 μg/mL. Human embryonic fibroblast cells were propagated in minimal essential media and supplemented with 10% fetal bovine serum. Cells were pre-treated with the two drugs at the 4 specified concentrations plus a zero control for 45 minutes. The plates were each infected with 300–400 viral particles of either HSV or HCMV for 1 hour. Drug free media was added to each plate and incubation continued for 3 days to propagate virus. At the end of three days, the supernatant from each of the plates was removed for plaque reduction assays.

Another data set concerns HCMV. Nature of the data set: Plaque reduction assay, HCMV in human embryonic fibroblast cells. The data set is classed as cell-based, Human Cytomalovirus. On the procedure:
as §1

The test system of the next data set is Sarcocystis neurona. From the text: The new drug was encapsulated as in Example 4 with 27% palmitic acid and 73% of Sterotex®.
Case 1: “Chris” is a 7 year old quarter horse gelding. […] Chris was given daily oral treatment of the new paste formulation containing lipid encapsulated 2-lauramide-5-nitrothiazole for a total of 28 dosings with 25 gm/syringe. (On day 22 to 28, the drug was not given and then resumed medication in the following week).
Case 2: “Brooke” is an 18-year-old thoroughbred mare. […] Again the horse was given daily oral treatments with the current dose of a typical 1000 lb horse at about 50 mg/Kg body weigh or 25 gm/day.
Case 3: “Foundation Man” is a 22-year-old Appaloosa gelding. […] Foundation Man was given daily oral treatments with the same amount of medication for 28 days.

Another data set has as its system fungal growth. Nature of the data set: Topical treatment of yellow fungal toes. The data set is classed as in vivo, patients. Particulars: 3% weight percent gel, 5 consecutive days then weekly for 4 weeks, after two weeks. On the procedure:
In the present study, patients suffering from yellow fungal toes were treated with a 3% weight percent BA3540 in a gel formulation (gel comprises propylene glycol and 0.8% Carbopol® Gel) for 5 consecutive days by topical application of the gel formulation on the surrounding nail cuticle area, followed by weekly treatment with the gel formulation for the next 4 weeks. The thickening of the nail caused by fungal growth disappeared after two weeks, and several months later a healthy nail began to appear behind the thick nail.

A further data set concerns coccidia. The data set can be described thus: Treatment of coccidiosis in chickens (fecal float oocyst levels). Here is the method: An initial trial involving 120 broilers (4 week old chickens) for the treatment of coccidiosis was made. Three treatment groups were used: (1) control, (2) low dose of 10 mg BA 3540/kg treatment, and (3) high dose at 50 mg BA 3540/kg treatment. The broilers were separated into six pens, […]. Fecal collection was begun to check for the presence of coccidian. The treatments were then assigned and the trial started. The treatment was added to a mash diet and fed adlib for seven days. At the end of the treatment period, new fecal collections for each treatment group were analyzed for the presence of coccidia.
Two fecal samples were taken from each pen and a fecal float was done to check oocyst levels. Oocyst levels are considered to determine the adult coccidian present in an intestinal tract.
A confirmatory trial was conducted with 10 seven-week-old Arbor Acres broilers. The birds were divided into two groups: control and 50 mg/kg treatment groups. The two set of cages were off the floor to prevent any potential contamination. The trial was monitored for four days and fecal floats for oocyte population were used to determine efficacy. Two fecal samples were collected from each cage.

Data set [2] in a line: Degradation of aspirin in sodium carbonate, monitored by UV spectrophotometry. The data set is classed as physicochemical. Particulars: 0.1 M NaCO3 (10 pH), at 27 hours. From the text:
In this example, aspirin is encapsulated in Sterotex® using the method described in Example 1. In aspirin, the deacetylated species is salicylic acid, which has a characteristic absorbency at 296 nm. The comparison of drug stability of Sterotex®/aspirin vs. aspirin was made in 0.1 M NaCO3 (10 pH) and the kinetics of degradation monitored by UV spectrophotometry. In FIG. 1, the appearance of salicylic acid is compared between aspirin encapsulated in Sterotex® and free aspirin. Aspirin slowly dissolves and is hydrolyzed to salicylic acid in a basic solution of 0.1 M NaCO3. At 27 hours, it is roughly 38% hydrolyzed. By contrast, aspirin encapsulated in Sterotex® is quite stable even at 27 hours and is only less than 2% degraded. This example illustrates the increase in drug stability provided by encapsulation in a lipid component.

For data set [3] the following is noted: free form; cited from earlier work.
The conditions of data set [4]: cited from earlier work.
The nature of data set [5]: Degradation of acetylbenzamide nitrothiazole in 0.1 M NaCO3 (optical density). The data set is classed as physicochemical. Particulars: 0.1 M NaCO3, at 3 hours. From the text:
(§2) Acetylbenzamide nitrothiazole, otherwise known as NTZ, is an antibiotic drug useful as a treatment for protozoan parasites. […] Acetylbenzamide nitrothiazole encapsulated by Sterotex® as described in Example 1 is hydrophobic and remains afloat on the water surface.
The kinetic of degradation of acetylbenzamnide nitrothiazole in 0.1 M NaCO3 is similar to the aspirin curve of FIG. 1. […] 1, while the free drug has an optical density of 1.9. This example also illustrates the stabilizing effect of lipid encapsulation.

The nature of data set [6]: Solubility and stability in water. The data set is classed as physicochemical.
Excerpt: as §2

Molecules are shown by their SMILES. Read-outs that look alike come from different tables or passages of the source.

For the molecule `CCCCCCCCCCCC(=O)Nc1ncc([N+](=O)[O-])s1` [BA 3540, 2-lauramide-5-nitrothiazole], in data set [1] (bulk drug), the solubility in methanol result is given as “sparingly soluble”. Also, the “solubility in methylene chloride and dimethylforamide” value in [1] (bulk drug) is listed as “more soluble”. Besides, in data set [1] (bulk drug), the solubility in water result is “insoluble”. For the same molecule, the “stability on heating in organic solvents” value in [1] (methanol, acetone, methylene chloride, dimethylforamide at 60–80° C.) was “no appreciable detriment”. Also, the therapeutic range in the data set with HSV was in the range of 5 to 10 µg/mL. The plaques was 90 in the data set on HSV (1.5 μg/mL, control 110 plaques); 3 with HCMV (1.5 μg/mL, controls 300 plaques); 1 in the data set on HCMV (2.5 μg/mL, controls 300 plaques); “none” in the data set with HCMV (higher drug concentrations (5 and 50 μg/mL)). Further, the projected therapeutic range in the data set with HCMV lay in the range of 1.5 to 2.5 µg/mL. In addition, the “EPM grade after treatment” value is given as 0/1 in the data set with Sarcocystis neurona (Case 1 Chris, from Grade 3, lipid encapsulated paste, oral daily, 28 dosings, 25 gm/syringe); 2 grade in the data set on Sarcocystis neurona (Case 2 Brooke, started at Grade 2, day 29, about 50 mg/Kg or 25 gm/day oral); 0 Grade in the data set with Sarcocystis neurona (Case 3 Foundation Man, from Grade 2/3, 28 day oral treatment). For the same molecule, the “recovery from EPM” value in the data set with Sarcocystis neurona (all three horses, owners' reports, day 84) was “fully recovered”. In addition, in the data set with Sarcocystis neurona (in vivo, po), the side effects entry is reported as “no side effects”. Also, the “thickening of the nail caused by fungal growth” value in the data set on fungal growth was “disappeared”. Moreover, the mortality entry in the data set with coccidia (broilers, 10 and 50 mg/kg in diet) is “no mortality”. For the same molecule, the “oocytes in fecal samples” value with coccidia (confirmatory trial, 50 mg/kg, four days, seven-week-old broilers) is listed as “no visible oocytes”. Besides, the “samples with detectable oocyst” value with coccidia (high dose group 50 mg/kg in mash diet, initial trial) is 1 of 4. Besides, in the data set on coccidia (low treatment group 10 mg/kg in mash diet, initial trial), the amount of oocyst result is recorded as “about the same as the control group”.
As to `CC(=O)Oc1ccccc1C(=O)O` [aspirin], in [2], the “hydrolyzed to salicylic acid (degraded)” value is on record as “roughly 38%”.
As to `CC(=O)Oc1ccccc1C(=O)Nc1ncc([N+](=O)[O-])s1` [NTZ, Nitazoxanide], the “adverse effects in horses” value in [3] is “causes anorexia, depression and diathermia or loose stool”. Moreover, in the data set on HCMV (all four drug concentrations (1.5, 2.5, 5, 50 μg/mL), control 310 plaques), the plaques result is listed as “no viral plaques”. In addition, in data set [4], the “expiry of bulk drug” value is given as “two”. In data set [5], this molecule came in with an optical density of 1.9. Moreover, the stability in water entry in data set [6] (standing in water, room temperature) is listed as “converted to the deacetylated counterpart”. Besides, the solubility in water entry in data set [6] (water) is “sparingly soluble”.
